Reference: patent US10080756B2, “Combination methods for treating cancers” (Gilead Sciences, Inc., priority 2014, dated 2018)

Assays:
Assay type in all cases: cell-based
Mino = test: Cell Titer Glo viability assay, Mino; conditions: Homo sapiens; Mino, MCL; single agent; 72 hours; read-out: Inhibition of Viability, EC50
Description: (§1) All procedures were performed at Gilead Sciences, Inc. in Branford, The compound of formula (I), cyclophosphamide, doxorubicin and vincristine sulfate were dissolved in DMSO to prepare stock solutions that were serially diluted three-fold in DMSO in a 96 well plate format at 1000× so the final starting assay concentrations tested would be 10 μM, 200 μM, 10 μM, and 1 μM respectively, for each compound. Compound plates were diluted 1:100 in RPMI without serum or additives creating a 10× stock. Cells were seeded into a 96-well plate at 10,000-20,000 cells per well in 100 μl of growth media appropriate to the cell line supplemented with 100 U/L penicillin-streptomycin. OCI-Ly3, OCI-Ly4 and OCI-Ly7 were grown in Iscove's+20% FBS, OCI-Ly19 was grown in alphaMEM+20% FBS, and all other cell lines were grown in RPMI+10% FBS. To each well, 11 μl of 10× compound was added in a final concentration of 0.1% DMSO and cells were incubated at 37° C. in 5% CO2 for 72 hours. Cell viability was assessed with Cell Titer Glo (Promega, Madison, Wis.) following the manufacturer's protocol on an Envision plate reader (Perkin Elmer, Waltham, Mass.). EC50 values were determined using a four parameter variable slope model with GraphPad Prism 6.0 software. All EC50 values represent mean values of from duplicate dose response curves.

OPM-2 = test: Cell Titer Glo viability assay, OPM-2; conditions: Homo sapiens; OPM-2, MM; single agent; 72 hours; read-out: Inhibition of Viability, EC50
Description: as §1

RPMI-8266 = test: Cell Titer Glo viability assay, RPMI-8266; conditions: RPMI8266; RPMI-8266, MM; single agent; 72 hours; read-out: Inhibition of Viability, EC50
Description: as §1

Karpas 422 = test: Cell Titer Glo viability assay, Karpas 422; conditions: Homo sapiens; Karpas 422, DLBCL; single agent; 72 hours; read-out: Inhibition of Viability, EC50
Description: as §1

KMS-11 = test: Cell Titer Glo viability assay, KMS-11; conditions: Homo sapiens; KMS-11, MM; single agent; 72 hours; read-out: Inhibition of Viability, EC50
Description: as §1

OCI-LY3 = test: Cell Titer Glo viability assay, OCI-LY3; conditions: Homo sapiens; OCI-LY3, DLBCL; single agent; 72 hours; read-out: Inhibition of Viability, EC50
Description: as §1

MM1.S = test: Cell Titer Glo viability assay, MM1.S; conditions: Homo sapiens, MM, single agent, 72 hours, read-out: Inhibition of Viability, EC50
Description: as §1

Pfeiffer = test: Cell Titer Glo viability assay, Pfeiffer; conditions: Homo sapiens, DLBCL, single agent, 72 hours, read-out: Inhibition of Viability, EC50
Description: as §1

OCI-LY4 = test: Cell Titer Glo viability assay, OCI-LY4; conditions: OCI-LY4, DLBCL; single agent; 72 hours; read-out: Inhibition of Viability, EC50
Description: as §1

SU-DHL-4 = test: Cell Titer Glo viability assay, SU-DHL-4; conditions: Homo sapiens; SU-DHL-4, DLBCL; single agent; 72 hours; read-out: Inhibition of Viability, EC50
Description: as §1

WSU-FSCCL = test: Cell Titer Glo viability assay, WSU-FSCCL; conditions: WSU-FSCCL, FL; single agent; 72 hours; read-out: Inhibition of Viability, EC50
Description: as §1

SU-DHL-2 = test: Cell Titer Glo viability assay, SU-DHL-2; conditions: Homo sapiens; SU-DHL-2, DLBCL; single agent; 72 hours; read-out: Inhibition of Viability, EC50
Description: as §1

EC50 (Karpas 422)	EC50 (OCI-LY3)	EC50 (MM1.S)	EC50 (OCI-LY4)	EC50 (SU-DHL-4)	EC50 (SU-DHL-2)	Structure (SMILES)	EC50 (Mino)	EC50 (OPM-2)	EC50 (RPMI-8266)	EC50 (KMS-11)	EC50 (Pfeiffer)	EC50 (WSU-FSCCL)
62 nM	12 nM	59 nM	< 1 nM	75 nM	65 nM	CC[C@]1(O)C[C@H]2CN(CCc3c([nH]c4ccccc34)[C@@](C(=O)OC)(c3cc4c(cc3OC)N(C=O)[C@H]3[C@@](O)(C(=O)OC)[C@H](OC(C)=O)[C@]5(CC)C=CCN6CC[C@]43[C@@H]65)C2)C1 [Vincristine, vincristine]	42 nM	97 nM	67 nM	103 nM	4 nM	58 nM
> 3000 nM	> 3000 nM	> 3000 nM	> 3000 nM	> 3000 nM	> 3000 nM	c1cn2cc(-c3ccc4cn[nH]c4c3)nc(Nc3ccc(N4CCOCC4)cc3)c2n1 [Compound of Formula I, 6-(1H-indazol-6-yl)-N-(4-morpholinophenyl)imidazo[1,2-a]pyrazin-8-amine]	> 3000 nM	> 3000 nM	> 3000 nM	> 3000 nM	> 3000 nM	> 3000 nM
